≈ marks a conversion by molar mass, not a printed value. Where two headings read alike, the source gives them in different places.

One series deals with HSV-1 VR539. The experiment in a line: CPE inhibition, HSV-1 VR539 in Vero cells. It is filed as cell-based, type 1 herpes simplex virus. The settings on record: Human alphaherpesvirus 1, MIC = concentration protecting 50% of cells from CPE. As to the method:
(§1) The antiviral activity of the test substances on various human pathogenic DNA and RNA viruses was investigated in cell culture test systems.
(§2) The test substances are diluted in ethanol to a final concentration of 1 mg/ml before the test, and Dulbecco's minimal essential medium (MEM) is used for further dilution steps. For the test, serial 3-fold dilutions of the test substances are made up in 96-well microtiter plates. Monkey kidney cells (Veto) in medium199 (5% FCS) or human embryonic diploid pulmonary fibroblast cells MRC-5 (Whittaker) are added in a concentration of 2×10^4 cells/well and incubated at 37° C. (5% CO2) for 3 h.
(§3) The test mixtures contain the test substance in concentrations from 400 μg/ml to 0.18 μg/ml in MEM supplemented with 4% FCS (HeLa) or 2% FCS (Veto), 100 U/ml penicillin G and 100 μg/ml streptomycin.
(§4) The cells are then infected with type 1 herpes simplex virus (corneas), type I herpes simplex virus VR733, type 1 herpes simplex virus VR539 (hominis), type 2 herpes simplex virus VR734 (MS), human cytomegalovirus VR977 or varicella zoster virus VR586 in concentrations at which the cell lawn is completely destroyed within 3 days (CMV: 7 days, VZV: 10 days) (for example HSV-1 corneae: 0.035 PFU/Vero cell, HSV-2: 0.066 PFU/Vero cell).
(§5) The cultures are incubated at 37° C. in the presence of 5% CO2. All the investigations are carried out as duplicate determinations; controls are determined only once per plate.
(§6) The untreated infection controls show a complete cytopathogenic effect (CPE) after incubation for a further 48 h (HCMV after 6 days, VZV after 9 days). After microscopic inspection of the cell cultures (HSV, HCMV, VZV), they are then stained (only HSV) with neutral red in accordance with the vital staining method of Finter (1966). The antiviral activity of a test substance is defined as the minimum inhibitory concentration (MIC) which is required to protect 50% of the cells from the cytopathogenic effect of the virus.

In the next series the test system is HCMV VR977. The experiment in a line: CPE inhibition, HCMV VR977 in MRC-5 cells. The note with it: Human betaherpesvirus 5, MRC5, MIC = concentration protecting 50% of cells from CPE. It is filed as cell-based, human cytomegalovirus. The protocol: as §1, §2, §3, §4, §5, §6
For a further series, the system named is HSV-1 VR733. Kind of series: CPE inhibition, HSV-1 VR733 in Vero cells. It is filed as cell-based, type 1 herpes simplex virus. The note with it: Human alphaherpesvirus 1, MIC = concentration protecting 50% of cells from CPE. As to the method: as §1, §2, §3, §4, §5, §6
The nature of series [1]: Cytotoxicity by microscopic inspection, MRC-5 cells. It is filed as cell-based. The note with it: human, read-out: MTD (maximum tolerated dose). The protocol: as §2, §3, §5
(§7) After incubation for 24 h, the cytotoxicity of the test substances is determined by microscopic inspection of the cell cultures. The maximum tolerated dose (MTD) is designated as the highest concentration of product which, under the said test conditions, is insufficient to cause microscopically detectable cell damage.

The subject of the next series is HSV-1 corneae. Kind of series: CPE inhibition, HSV-1 corneae in Vero cells. It is filed as cell-based, type 1 herpes simplex virus. The note with it: Human alphaherpesvirus 1, MIC = concentration protecting 50% of cells from CPE. The protocol:
as §1, §2, §3, §4, §5, §6

Series [2] can be described thus: Cytotoxicity by microscopic inspection, Vero cells. It is filed as cell-based. The note with it: monkey. As to the method: as §2, §3, §5, §7
Another series has as its system HSV-1 labialis. The experiment in a line: CPE inhibition, HSV-1 labialis in Vero cells. In kind it is cell-based, type 1 herpes simplex virus. The settings on record: Human alphaherpesvirus 1, MIC = concentration protecting 50% of cells from CPE. As to the method:
as §1, §2, §3, §4, §5, §6

For another series, the system named is HSV-2 VR734. The experiment in a line: CPE inhibition, HSV-2 VR734 in Vero cells. It is filed as cell-based, type 2 herpes simplex virus. The note with it: Human alphaherpesvirus 2, MIC = concentration protecting 50% of cells from CPE. The protocol: as §1, §2, §3, §4, §5, §6
A further series deals with herpesviruses. Kind of series: Antiviral activity against herpesviruses (general statement). The note with it: in words.
In the next series the test system is VZV VR586. Kind of series: CPE inhibition, VZV VR586 in MRC-5 cells. In kind it is cell-based, varicella zoster virus. The note with it: Human alphaherpesvirus 3, MRC5, read-out: MIC VZV VR586. As to the method: as §1, §2, §3, §5
After microscopic inspection of the cell cultures (HSV, HCMV, VZV), they are then stained (only HSV) with neutral red in accordance with the vital staining method of Finter (1966). The antiviral activity of a test substance is defined as the minimum inhibitory concentration (MIC) which is required to protect 50% of the cells from the cytopathogenic effect of the virus.

A further series deals with HSV-1. Kind of series: Therapeutic efficacy in NMRI mice infected intraperitoneally with HSV-1. In kind it is in vivo. The settings on record: for Surviving/group size: observed 2 weeks; for ED50: Human alphaherpesvirus 1, from Reed & Muench, read-out: IC50 (the source's name).
Where [3] appears, read: Vero cells, 24 h, read-out: MTD (maximum tolerated dose).

Take `Nc1nc2c(ncn2COCCO)c(=O)[nH]1` [Aciclovir, reference compound]: the EC50 in the series with HSV-1 VR539 was 0.98 µg/mL (≈ 4.35 µM); in the series on HCMV VR977 it was 1.16 µg/mL (≈ 5.15 µM); in the series on HSV-1 VR733 it was 0.56 µg/mL (≈ 2.49 µM); in the series with HSV-1 corneae it was ≤ 0.98 µg/mL; in the series on HSV-1 labialis it was 0.56 µg/mL (≈ 2.49 µM); in the series with HSV-2 VR734 it was ≤ 0.4 µg/mL. Moreover, the MNTC at 24 h in series [1] and in [2] (vero cells) was ≥ 400 µg/mL in each case.

Take `CC(C)OCC(COC(C)C)OCn1nnc2nc(N)ncc21` [Example 7, 5-amino-1H-1-[(1,3-bis-isopropoxy-2-propoxy)methyl]-1,2,3-triazolo[4,5-d]pyrimidine]: the activity against herpesviruses result in the series with herpesviruses is on record as “particularly high activity against herpesviruses”.

For `CC(=O)Nc1ncc2c(nnn2COC(CO)CO)n1` [Example 8, 5-acetamido-1H-1-[(1,3-dihydroxy-2-propoxy)methyl]-1,2,3-triazolo[4,5-d]pyrimidine], the EC50 in the series on HSV-1 VR539 amounted to 24.7 µg/mL (≈ 87.5 µM); in the series on HCMV VR977 it was 7.13 µg/mL (≈ 25.3 µM); in the series with HSV-1 VR733 it was 6.58 µg/mL (≈ 23.3 µM); in the series on HSV-1 corneae it was 11.5 µg/mL (≈ 40.8 µM); in the series on VZV VR586 it was 0.18 µg/mL (≈ 0.638 µM); with HSV-1 labialis, 7.68 µg/mL (≈ 27.2 µM). Moreover, the EC50 in the series with HSV-2 VR734 was 37 µg/mL (≈ 131 µM). Further, the values for the MNTC at 24 h in series [1] and in series [2] (setting [3]) were ≥ 311 µg/mL and ≥ 333 µg/mL, respectively.

In the case of `Nc1ncc2c(nnn2COC(CO)CO)n1` [Example 9, 5-amino-1H-1-[(1,3-dihydroxy-2-propoxy)methyl]-1,2,3-triazolo[4,5-d]pyrimidine], the EC50 in the series with HSV-1 VR539 was 4.94 µg/mL (≈ 20.6 µM); in the series with HCMV VR977, < 0.27 µg/mL; in the series with HSV-1 VR733, 1.28 µg/mL (≈ 5.33 µM); in the series on HSV-1 corneae it was 1.65 µg/mL (≈ 6.87 µM); in the series on VZV VR586, < 0.18 µg/mL; with HSV-1 labialis, 1.1 µg/mL (≈ 4.58 µM). Also, the EC50 in the series with HSV-2 VR734 was 2.93 µg/mL (≈ 12.2 µM). Moreover, the Average survival time with HSV-1 (9 × 3 μmol/kg ip) stood at 6.3 ± 0.6 days; in the series with HSV-1 (9 × 3 μmol/kg po), 8.8 ± 1.6 days; in the series with HSV-1 (9 × 10 μmol/kg po), 6.2 ± 0.5 days; in the series on HSV-1 (9 × 30 μmol/kg po), 8.0 ± 1.7 days. For the same molecule, the Surviving/group size in the series with HSV-1 (9 × 3 μmol/kg ip) is given as 2/5; in the series with HSV-1 (9 × 3 μmol/kg po) it was 0/5; with HSV-1 (9 × 10 μmol/kg ip), 5/5; in the series with HSV-1 (9 × 10 μmol/kg po) it was 0/5; in the series on HSV-1 (9 × 30 μmol/kg ip) it was 5/5; with HSV-1 (9 × 30 μmol/kg po) it was 0/5. In addition, the figures for the ED50 in the series with HSV-1 (ip) and in the series on HSV-1 (po) were 3.7 µmol/kg and > 30 µmol/kg, respectively. Besides, the MNTC at 24 h in series [1] was ≥ 356 µg/mL; in [2] (setting [3]), ≥ 333 µg/mL. Besides, the activity against herpesviruses result in the series with herpesviruses is on record as “particularly high activity against herpesviruses”.

As to `CC(=O)OCC(COC(C)=O)OCn1nnc2nc(N)ncc21` [Example 10, 5-amino-1H-1-[(1,3-diacetoxy-2-propoxy)methyl]-1,2,3-triazolo [4,5-d]pyrimidine], the EC50 with HSV-1 VR539 is 24.7 µg/mL (≈ 76.1 µM); in the series with HCMV VR977, < 0.3 µg/mL; in the series on HSV-1 VR733, 11.5 µg/mL (≈ 35.5 µM); in the series on HSV-1 corneae, 14.8 µg/mL (≈ 45.7 µM); with VZV VR586, < 0.18 µg/mL; in the series with HSV-1 labialis, 9.88 µg/mL (≈ 30.5 µM). Further, the EC50 in the series on HSV-2 VR734 stood at 24.7 µg/mL (≈ 76.1 µM). Moreover, the Average survival time worked out at 11.0 ± 1.4 days in the series on HSV-1 (9 × 9 μmol/kg ip), 8.8 ± 1.8 days in the series with HSV-1 (9 × 9 μmol/kg po) and 12.0 days in the series on HSV-1 (9 × 31 μmol/kg po). For the same molecule, the Surviving/group size in the series with HSV-1 (9 × 9 μmol/kg ip) is 3/5; in the series with HSV-1 (9 × 9 μmol/kg po), 0/5; with HSV-1 (9 × 31 μmol/kg ip), 5/5; in the series on HSV-1 (9 × 31 μmol/kg po), 4/5; with HSV-1 (9 × 93 μmol/kg ip), 5/5; with HSV-1 (9 × 93 μmol/kg po) it was 5/5. Moreover, the ED50 was < 9 µmol/kg in the series on HSV-1 (ip) and 19.7 µmol/kg in the series with HSV-1 (po). Further, the MNTC at 24 h was ≥ 74.1 µg/mL in series [1] and ≥ 311 µg/mL in [2] (setting [3]). For the same molecule, in the series with herpesviruses, the activity against herpesviruses result was “particularly high activity against herpesviruses”.

Turning to `Nc1nc(O)c2ncn(COC(CO)CO)c2n1` [Ganciclovir, reference compound], the EC50 in the series on HSV-1 VR539 is 1.65 µg/mL (≈ 6.46 µM); in the series on HCMV VR977 it was 0.06 µg/mL (≈ 0.235 µM); in the series with HSV-1 VR733, 0.95 µg/mL (≈ 3.72 µM); in the series with HSV-1 corneae it was 0.85 µg/mL (≈ 3.33 µM); with VZV VR586, 6.13 µg/mL (≈ 24 µM); in the series on HSV-1 labialis, ≤ 0.18 µg/mL. This molecule also showed an EC50 with HSV-2 VR734 of 1.93 µg/mL (≈ 7.56 µM). Besides, the Average survival time was found to be 8.0 ± 0 days in the series with HSV-1 (9 × 3 μmol/kg ip), 11.3 ± 1.5 days in the series with HSV-1 (9 × 3 μmol/kg po) and 9.5 ± 0.7 days in the series with HSV-1 (9 × 10 μmol/kg po). Also, the Surviving/group size in the series with HSV-1 (9 × 3 μmol/kg ip) is reported as 3/5; in the series with HSV-1 (9 × 3 μmol/kg po), 1/5; with HSV-1 (9 × 10 μmol/kg ip), 5/5; in the series with HSV-1 (9 × 10 μmol/kg po) it was 3/5; with HSV-1 (9 × 30 μmol/kg ip), 5/5; in the series with HSV-1 (9 × 30 μmol/kg po) it was 5/5. Moreover, the values for the ED50 with HSV-1 (ip) and in the series on HSV-1 (po) were < 3 µmol/kg and 6.8 µmol/kg, respectively. Besides, the MNTC at 24 h in series [1] and in [2] (setting [3]) was ≥ 400 µg/mL each time.

These data come from patent US5457091A, “N1-substituted 1H-1,2,3-triazolo[4,5,-D]pyrimidines, a process for their preparation and their use as antiviral agents” (priority 1992, dated 1995).
